These results are taken from article PMC5053573, “Structure-Based Design of Tetrahydroisoquinoline-7-carboxamides as Selective Discoidin Domain Receptor 1 (DDR1) Inhibitors” (Journal of Medicinal Chemistry, 2016).

For assay [1], the target named is T1, DDR2 (Homo sapiens, UniProt Q16832).
T1 sequence (Q16832 22-855): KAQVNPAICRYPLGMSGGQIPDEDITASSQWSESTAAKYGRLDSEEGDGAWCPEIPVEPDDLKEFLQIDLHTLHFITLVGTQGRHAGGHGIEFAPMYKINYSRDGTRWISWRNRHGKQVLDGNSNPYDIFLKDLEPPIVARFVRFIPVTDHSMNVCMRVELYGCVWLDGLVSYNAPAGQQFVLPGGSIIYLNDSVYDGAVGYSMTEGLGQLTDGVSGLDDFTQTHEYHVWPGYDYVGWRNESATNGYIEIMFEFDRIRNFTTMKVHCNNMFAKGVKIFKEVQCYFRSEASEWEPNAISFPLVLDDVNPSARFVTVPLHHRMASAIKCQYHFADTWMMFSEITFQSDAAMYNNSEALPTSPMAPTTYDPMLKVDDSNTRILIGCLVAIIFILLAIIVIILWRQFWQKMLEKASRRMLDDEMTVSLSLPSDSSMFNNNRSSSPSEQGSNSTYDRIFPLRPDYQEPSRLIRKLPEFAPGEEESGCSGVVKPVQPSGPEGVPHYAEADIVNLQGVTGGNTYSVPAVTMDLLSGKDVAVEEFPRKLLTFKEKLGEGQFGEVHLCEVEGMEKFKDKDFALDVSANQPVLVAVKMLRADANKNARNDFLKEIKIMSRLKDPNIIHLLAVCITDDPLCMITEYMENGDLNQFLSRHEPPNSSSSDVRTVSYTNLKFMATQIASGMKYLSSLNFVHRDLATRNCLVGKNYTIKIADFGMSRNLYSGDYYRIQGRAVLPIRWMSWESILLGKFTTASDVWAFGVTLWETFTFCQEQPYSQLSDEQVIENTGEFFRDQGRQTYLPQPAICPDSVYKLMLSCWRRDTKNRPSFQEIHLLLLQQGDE
Briefly: LANCE ULTRA kinase assay, DDR2. It counts as biochemical.

In assay [2] the target is T2, TRKB (Homo sapiens, UniProt Q16620).
T2 construct: purchased DiscoveRx
Briefly: KINOMEscan binding constant, TRKB. To be noted: read-out: Binding affinity (Kd, nM) TRKB.

Assay [3] addresses DDR1 (Homo sapiens, UniProt Q08345).

Structures are written as SMILES. Bounds are passed on as bounds.

DDR1, sequence (Q08345 19-913): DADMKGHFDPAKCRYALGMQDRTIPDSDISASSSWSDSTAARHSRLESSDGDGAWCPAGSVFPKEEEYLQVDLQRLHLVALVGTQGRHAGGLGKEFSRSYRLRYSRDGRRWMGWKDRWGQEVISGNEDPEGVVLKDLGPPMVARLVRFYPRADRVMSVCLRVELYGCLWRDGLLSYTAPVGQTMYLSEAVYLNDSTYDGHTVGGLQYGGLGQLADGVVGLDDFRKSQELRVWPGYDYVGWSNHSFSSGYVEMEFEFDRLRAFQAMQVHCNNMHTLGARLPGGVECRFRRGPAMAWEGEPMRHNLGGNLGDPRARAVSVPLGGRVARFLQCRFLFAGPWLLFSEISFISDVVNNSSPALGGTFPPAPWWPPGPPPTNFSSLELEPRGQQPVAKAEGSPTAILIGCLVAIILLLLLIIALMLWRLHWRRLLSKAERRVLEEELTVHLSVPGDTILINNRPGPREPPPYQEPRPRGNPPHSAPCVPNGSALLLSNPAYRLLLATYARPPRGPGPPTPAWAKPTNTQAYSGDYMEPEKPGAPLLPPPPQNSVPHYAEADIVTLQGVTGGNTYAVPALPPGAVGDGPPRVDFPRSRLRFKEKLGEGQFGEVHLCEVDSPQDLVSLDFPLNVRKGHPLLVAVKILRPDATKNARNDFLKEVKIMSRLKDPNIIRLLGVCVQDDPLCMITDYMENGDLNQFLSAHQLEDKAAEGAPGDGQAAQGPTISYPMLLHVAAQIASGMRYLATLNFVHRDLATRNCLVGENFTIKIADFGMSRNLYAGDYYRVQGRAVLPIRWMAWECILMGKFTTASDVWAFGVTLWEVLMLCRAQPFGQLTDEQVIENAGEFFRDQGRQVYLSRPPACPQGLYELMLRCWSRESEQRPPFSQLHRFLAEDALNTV
T2 sequence (Q16620 32-822): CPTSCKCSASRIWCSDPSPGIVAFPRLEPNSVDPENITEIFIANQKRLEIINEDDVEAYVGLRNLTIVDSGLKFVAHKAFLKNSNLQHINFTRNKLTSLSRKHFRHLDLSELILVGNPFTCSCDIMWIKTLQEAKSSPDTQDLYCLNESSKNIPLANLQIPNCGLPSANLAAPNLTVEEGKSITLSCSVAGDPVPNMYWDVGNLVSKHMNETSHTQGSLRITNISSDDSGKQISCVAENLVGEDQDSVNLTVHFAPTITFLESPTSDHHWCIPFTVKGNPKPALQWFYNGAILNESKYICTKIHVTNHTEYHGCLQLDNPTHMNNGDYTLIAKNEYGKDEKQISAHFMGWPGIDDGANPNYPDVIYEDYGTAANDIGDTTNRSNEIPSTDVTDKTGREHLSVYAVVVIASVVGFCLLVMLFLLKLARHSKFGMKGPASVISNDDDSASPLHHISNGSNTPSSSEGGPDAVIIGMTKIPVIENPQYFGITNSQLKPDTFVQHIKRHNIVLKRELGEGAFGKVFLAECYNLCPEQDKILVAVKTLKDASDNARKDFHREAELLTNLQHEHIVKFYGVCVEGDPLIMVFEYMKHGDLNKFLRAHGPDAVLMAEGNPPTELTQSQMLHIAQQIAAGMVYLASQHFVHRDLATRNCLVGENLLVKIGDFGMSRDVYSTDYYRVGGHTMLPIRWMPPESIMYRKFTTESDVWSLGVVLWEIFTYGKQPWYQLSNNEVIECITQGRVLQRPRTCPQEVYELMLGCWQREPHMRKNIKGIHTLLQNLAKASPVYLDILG

Consider `CN1CCN(Cc2cc(NC(=O)c3ccc4c(c3)CN(c3cncnc3)CC4)cc(C(F)(F)F)c2)CC1` [Compound 6a], for which the IC50 in assay [1] was more than 7900 nM. In addition, the Kd in assay [2] came to 29 ± 5.5 nM.
As to `C[C@H]1CN(c2cncnc2)Cc2cc(C(=O)Nc3cc(CN4CCN(C)CC4)cc(C(F)(F)F)c3)ccc21` [Compound 6b], the Kd in assay [2] was 5.2 ± 1 nM.
In the case of `C[C@@H]1CN(c2cncnc2)Cc2cc(C(=O)Nc3cc(CN4CCN(C)CC4)cc(C(F)(F)F)c3)ccc21` [Compound 6c], the Kd in assay [2] was 36 ± 2.5 nM.
With `CC[C@H]1CN(c2cncnc2)Cc2cc(C(=O)Nc3cc(CN4CCN(C)CC4)cc(C(F)(F)F)c3)ccc21` [Compound 6d], the IC50 in assay [1] was determined as 546 ± 49 nM. For the same compound, in assay [2], the Kd is 22 ± 1 nM.
In assay [1], `CC[C@@H]1CN(c2cncnc2)Cc2cc(C(=O)Nc3cc(CN4CCN(C)CC4)cc(C(F)(F)F)c3)ccc21` [Compound 6e] had an IC50 of more than 10000 nM. Further, the Kd in assay [2] was 500 ± 30 nM.
Regarding `CC(C)[C@H]1CN(c2cncnc2)Cc2cc(C(=O)Nc3cc(CN4CCN(C)CC4)cc(C(F)(F)F)c3)ccc21` [Compound 6f], the IC50 in assay [1] was more than 10000 nM. Further, the Kd in assay [2] amounted to 340 ± 5 nM. Further, the “DDR1 inhibition, result in words” value in assay [3] is given as “substantial potency loss”.
In assay [1], `CC(C)[C@@H]1CN(c2cncnc2)Cc2cc(C(=O)Nc3cc(CN4CCN(C)CC4)cc(C(F)(F)F)c3)ccc21` [Compound 6g] showed an IC50 of more than 10000 nM. In assay [2], the Kd was more than 1000 nM. Moreover, in assay [3], the “DDR1 inhibition, result in words” value was “almost no DDR1 inhibition”.
With `CN1CCN(Cc2cc(NC(=O)c3ccc4c(c3)CN(c3cccnc3)CC4)cc(C(F)(F)F)c2)CC1` [Compound 6h], in assay [1], the IC50 is more than 4000 nM. The Kd in assay [2] came out at 94 ± 6 nM.
On to `CN1CCN(Cc2cc(NC(=O)c3ccc4c(c3)CN(c3ccccc3)CC4)cc(C(F)(F)F)c2)CC1` [Compound 6i], for which the IC50 in assay [1] was more than 10000 nM. For the same compound, the Kd in assay [2] is more than 1000 nM. For the same compound, the “DDR1 inhibition, result in words” value in assay [3] is “totally abolished DDR1 inhibitory potency”.

By IC50 is commonly meant the concentration needed to halve the response being measured. Higher therefore signals weaker potency. Broadly, the Kd is the equilibrium constant for the complex coming apart.
